{"source": "paper PMC6131351", "about": "“Pharmacological difference between degrader and inhibitor against oncogenic BCR-ABL kinase” (Scientific Reports, 2018)", "key": {"Jurkat cells": {"system": "Jurkat cells", "assay": "WST cell growth inhibition, Jurkat (BCR-ABL negative)", "type": "cell-based", "details": "Homo sapiens, 48 h, WST assay, means ± SD (n = 3)"}, "BCR-ABL protein": {"target": "T1, BCR-ABL protein (Homo sapiens, UniProt P00519+P11274)", "T1 construct": "examined for their activity to degrade BCR-ABL in K562 cells for 6 h; BCR (fusion partner, P11274, N-terminal part); endogenous in cells; host or cells: K562", "T1 sequence (P11274+P00519 fused)": "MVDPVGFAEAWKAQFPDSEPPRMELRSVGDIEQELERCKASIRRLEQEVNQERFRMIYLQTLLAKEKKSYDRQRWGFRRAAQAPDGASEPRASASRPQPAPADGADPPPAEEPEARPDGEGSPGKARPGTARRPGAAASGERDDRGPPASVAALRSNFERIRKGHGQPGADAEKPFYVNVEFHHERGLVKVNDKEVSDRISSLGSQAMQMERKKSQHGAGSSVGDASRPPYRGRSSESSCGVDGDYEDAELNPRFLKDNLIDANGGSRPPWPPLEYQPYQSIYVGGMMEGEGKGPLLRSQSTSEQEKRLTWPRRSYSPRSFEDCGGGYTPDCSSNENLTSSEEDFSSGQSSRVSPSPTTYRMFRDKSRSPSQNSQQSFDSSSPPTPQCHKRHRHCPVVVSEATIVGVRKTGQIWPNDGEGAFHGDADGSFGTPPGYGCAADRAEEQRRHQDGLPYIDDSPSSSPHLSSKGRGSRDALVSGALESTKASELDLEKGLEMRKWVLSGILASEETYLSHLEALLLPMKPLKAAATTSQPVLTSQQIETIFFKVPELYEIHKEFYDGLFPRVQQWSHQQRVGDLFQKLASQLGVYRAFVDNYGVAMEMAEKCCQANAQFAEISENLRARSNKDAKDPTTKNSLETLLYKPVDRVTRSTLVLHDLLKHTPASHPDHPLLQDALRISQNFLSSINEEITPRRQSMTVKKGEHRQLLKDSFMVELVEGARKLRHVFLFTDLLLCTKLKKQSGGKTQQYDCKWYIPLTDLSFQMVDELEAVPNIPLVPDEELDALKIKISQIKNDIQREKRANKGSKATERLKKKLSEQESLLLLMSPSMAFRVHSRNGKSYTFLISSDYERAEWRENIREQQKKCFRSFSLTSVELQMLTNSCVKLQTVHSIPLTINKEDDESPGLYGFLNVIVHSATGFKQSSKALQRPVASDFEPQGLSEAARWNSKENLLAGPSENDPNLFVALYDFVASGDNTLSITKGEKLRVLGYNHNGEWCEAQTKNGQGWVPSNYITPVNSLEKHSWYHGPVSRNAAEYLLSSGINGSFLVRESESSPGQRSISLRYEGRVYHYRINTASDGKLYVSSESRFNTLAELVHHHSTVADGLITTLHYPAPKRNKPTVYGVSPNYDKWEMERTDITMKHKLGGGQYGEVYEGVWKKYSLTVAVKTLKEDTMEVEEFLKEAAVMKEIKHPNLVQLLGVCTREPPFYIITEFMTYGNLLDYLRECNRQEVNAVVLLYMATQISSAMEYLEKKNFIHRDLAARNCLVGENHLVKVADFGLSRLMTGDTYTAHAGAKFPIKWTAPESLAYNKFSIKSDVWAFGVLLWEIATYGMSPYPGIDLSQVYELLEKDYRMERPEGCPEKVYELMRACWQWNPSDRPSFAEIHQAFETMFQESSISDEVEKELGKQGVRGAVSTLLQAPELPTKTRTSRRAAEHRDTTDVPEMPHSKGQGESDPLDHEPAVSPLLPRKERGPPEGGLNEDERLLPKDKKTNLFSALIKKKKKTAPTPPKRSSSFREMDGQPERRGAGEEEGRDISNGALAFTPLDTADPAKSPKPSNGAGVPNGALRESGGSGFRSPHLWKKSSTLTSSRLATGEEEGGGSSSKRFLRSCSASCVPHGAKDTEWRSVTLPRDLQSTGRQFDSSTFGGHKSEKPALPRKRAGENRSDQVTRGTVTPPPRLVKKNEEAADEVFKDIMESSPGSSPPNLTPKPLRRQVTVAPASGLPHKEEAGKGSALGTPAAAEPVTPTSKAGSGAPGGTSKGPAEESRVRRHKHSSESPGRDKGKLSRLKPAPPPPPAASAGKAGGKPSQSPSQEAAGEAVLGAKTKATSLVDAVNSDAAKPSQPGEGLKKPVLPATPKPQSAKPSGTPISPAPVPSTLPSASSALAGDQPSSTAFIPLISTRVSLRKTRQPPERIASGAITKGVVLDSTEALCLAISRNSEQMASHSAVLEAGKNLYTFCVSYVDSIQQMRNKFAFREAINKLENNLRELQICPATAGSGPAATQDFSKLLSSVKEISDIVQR", "assay": "Protein knockdown by western blot in K562 cells", "type": "cell-based", "details": "6 h", "procedure": "Cells were collected and lysed in a lysis buffer (0.5% Triton X-100, 0.01 M Tris-HCl (pH 7.5), 0.15 M NaCl, Complete Mini protease inhibitor cocktail (Roche Applied Science, Indianapolis, IL, USA) and PhosStop phosphatase inhibitor cocktail (Roche Applied Science)). Protein concentrations were measured by the BCA method (Thermo Fisher Scientific) and an equal amount of protein lysate was separated by SDS-PAGE, transferred to polyvinylidene difluoride membranes (Merck Millipore) and analyzed by western blot using an appropriate antibody. The immunoreactive proteins were visualized using Clarity Western ECL substrate (Bio-Rad, Hercules, CA, USA) and their light emission was quantified with a LAS-3000 lumino-image analyzer (Fuji, Tokyo, Japan)."}, "K562 cells": {"system": "K562 cells", "assay": "WST cell growth inhibition, K562", "type": "cell-based, Human", "details": "48 h, WST assay; for IC50: Homo sapiens, means ± SD (n = 3)", "procedure": "Human CML (K562 and KU812 cells), acute T-lymphoblast leukemia (MOLT-4 cell), and T cell leukemia (Jurkat cell) were cultured in Roswell Park Memorial Institute-1640 medium (Sigma-Aldrich, St. Louis, MO, USA) containing 10% fetal bovine serum (Thermo Fisher Scientific, Waltham, MA, USA) and 50 μg/ml kanamycin (Sigma-Aldrich). KU812 cells were obtained from Japanese Collection of Research Bioresources (JCRB, Osaka, Japan) Cell Bank (JCRB0104)[58].\nCell viability was determined using water-soluble tetrazolium WST-8 (4-[3-(2-methoxy-4-nitrophenyl)-2-(4-nitrophenyl)-2H-5-tetrazolio]-1,3-benzene disulfonate) for the spectrophotometric assay and conducted according to the manufacturer’s instructions (Dojindo, Tokyo, Japan). Cells were seeded at a concentration of 5 × 10^3 cells per well in a 96-well culture plate, and treated with the indicated compounds for 48 h. The WST-8 reagent was added, and the cells were incubated for 0.5 h at 37 °C in a humidified atmosphere of 5% CO2. The absorbance at 450 nm of the medium was measured using the EnVision Multilabel Plate Reader."}, "XIAP (BIR3)": {"target": "T2, XIAP (BIR3) (Homo sapiens, UniProt P98170)", "T2 construct": "human XIAP (BIR3, Asn252-Thr356, 895-XB-050); purchased R&D Systems 895-XB-050", "T2 sequence (P98170 252-356)": "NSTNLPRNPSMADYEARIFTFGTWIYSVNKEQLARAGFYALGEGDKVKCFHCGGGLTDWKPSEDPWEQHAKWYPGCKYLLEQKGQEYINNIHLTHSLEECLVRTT", "assay": "TR-FRET IAP/Smac peptide interaction assay, XIAP", "details": "FITC-Smac probe, read-out: Binding affinity IC50 XIAP", "procedure": "(§1) The TR-FRET assay was carried out using 384-well white flat-bottom plates (Greiner Bio-One) and the signal was measured using an EnVision Multilabel Plate Reader (PerkinElmer, Waltham, MA, USA). The solution in each well was excited with a laser (λ = 337 nm) reflected by a dichroic mirror (D400/D505 (Perkin Elmer) and fluorescence from terbium (Tb) and BODIPY or FITC was detected through two emission filters (CFP 486 (Perkin Elmer) for Tb and Emission 515 (Perkin Elmer) for BODIPY and FITC). The assay buffer used in this study was composed of 50 mM HEPES (pH 7.2–7.5), 10 mM MgCl2, 1 mM EGTA, 0.1 mM DTT and 0.01% (v/v) Brij^(R) 35. All assays were carried out at room temperature in triplicate or quadruplicate formats.\n(§2) The half maximal inhibitory concentration (IC50) of test compounds was calculated by fitting the data with the logistic equation using GraphPad Prism 5 (GraphPad Software, Inc., La Jolla, CA, USA) or XLfit (IDBS, Guildford, UK).\n(§3) His-IAP proteins (XIAP, cIAP1 or cIAP2), FITC-Smac, Tb-SA and the biotinylated anti-His antibody (Life Technologies) were mixed in the assay buffer and incubated for over 1 h at room temperature before addition to the assay plate. […] After 1 h incubation at room temperature, the TR-FRET signal was measured using the EnVision Multilabel Plate Reader. […]"}, "cIAP2 (BIR3)": {"target": "T3, cIAP2 (BIR3) (Homo sapiens, UniProt Q13489)", "T3 construct": "cIAP2 (BIR3, Gln238-Ser349) proteins were expressed in E. coli; made in house; host or cells: E. coli", "T3 sequence (Q13489 238-349)": "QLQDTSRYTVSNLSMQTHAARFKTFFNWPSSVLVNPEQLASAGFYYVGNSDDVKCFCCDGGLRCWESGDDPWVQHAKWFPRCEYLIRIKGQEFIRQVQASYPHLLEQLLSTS", "assay": "TR-FRET IAP/Smac peptide interaction assay, cIAP2", "details": "FITC-Smac probe, read-out: Binding affinity IC50 cIAP2", "procedure": "as §1, §2, §3"}, "cIAP1 (BIR3)": {"target": "T4, cIAP1 (BIR3) (Homo sapiens, UniProt Q13490)", "T4 construct": "human cIAP1 (BIR3, Leu250-Gly350); made in house; host or cells: E. coli", "T4 sequence (Q13490 250-350)": "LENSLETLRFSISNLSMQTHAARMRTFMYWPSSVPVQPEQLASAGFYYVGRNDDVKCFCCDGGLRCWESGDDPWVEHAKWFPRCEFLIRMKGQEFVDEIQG", "assay": "TR-FRET IAP/Smac peptide interaction assay, cIAP1", "details": "FITC-Smac probe, read-out: Binding affinity IC50 cIAP1", "procedure": "as §1, §2, §3"}}}
{"smiles": "CN[C@@H](C)C(=O)N[C@H](C(=O)N1CCC[C@H]1c1nc(C(=O)c2cccc(OCCOCCOCCOCC(=O)N3CCN(c4cc(Nc5ncc(C(=O)Nc6c(C)cccc6Cl)s5)nc(C)n4)CC3)c2)cs1)C1CCCCC1", "note": "[DAS-IAP]", "values": [{"measurement": "IC50", "setting": "Jurkat cells", "value": "2870 ± 293", "unit": "nM"}, {"measurement": "BCR-ABL, cIAP1 and XIAP protein levels", "setting": "BCR-ABL protein", "value": "reduced"}, {"measurement": "knockdown activity against the BCR-ABL protein", "setting": "BCR-ABL protein; 1-300 nM", "value": "effective knockdown activity"}, {"measurement": "suppression of K562 cell growth (comparison)", "setting": "K562 cells", "value": "more potent suppression of K562 cell growth than DAS-VHL"}, {"measurement": "IC50", "setting": "K562 cells", "value": 8.6, "unit": "nM"}, {"measurement": "IC50", "setting": "XIAP (BIR3)", "value": 50, "unit": "nM"}, {"measurement": "IC50", "setting": "cIAP2 (BIR3)", "value": 12, "unit": "nM"}, {"measurement": "IC50", "setting": "cIAP1 (BIR3)", "value": 10, "unit": "nM"}]}
{"smiles": "CN[C@@H](C)C(=O)N(C)[C@H](C(=O)N1CCC[C@H]1c1nc(C(=O)c2cccc(OCCOCCOCCOCC(=O)N3CCN(c4cc(Nc5ncc(C(=O)Nc6c(C)cccc6Cl)s5)nc(C)n4)CC3)c2)cs1)C1CCCCC1", "note": "[DAS-meIAP]", "values": [{"measurement": "IC50", "setting": "Jurkat cells", "value": "2440 ± 310", "unit": "nM"}, {"measurement": "BCR-ABL, cIAP1 and XIAP protein levels", "setting": "BCR-ABL protein", "value": "did not reduce"}, {"measurement": "IC50", "setting": "K562 cells", "value": 3.93, "unit": "nM"}, {"measurement": "IC50", "setting": "XIAP (BIR3)", "value": "> 1000", "unit": "nM"}, {"measurement": "IC50", "setting": "cIAP2 (BIR3)", "value": "> 1000", "unit": "nM"}, {"measurement": "IC50", "setting": "cIAP1 (BIR3)", "value": "> 1000", "unit": "nM"}]}
